Data taken from article PMC12373846, “Hemoglobin as a pseudoperoxidase and drug target for oxidative stress-related diseases” (Signal Transduction and Targeted Therapy, 2025).
Values joined by “and” are separate entries in the source; they are usually repeats but may differ in a detail not shown here. Identical values can stand only once. Like-named read-outs stand apart in the source and are kept apart here.

Columns and labels:
Assay in all cases: SafetyScreen87 panel
[1] = target: T1, 5-HT transporter (h) (antagonist radioligand) (Homo sapiens, UniProt P31645); conditions: 1.0E-06 M, read-out: % Inhibition of Control Specific Binding (1st, 2nd, Mean)
T1 construct: Eurofins Discovery (Cerep, France) SafetyScreen87 panel
T1 sequence (P31645 whole entry): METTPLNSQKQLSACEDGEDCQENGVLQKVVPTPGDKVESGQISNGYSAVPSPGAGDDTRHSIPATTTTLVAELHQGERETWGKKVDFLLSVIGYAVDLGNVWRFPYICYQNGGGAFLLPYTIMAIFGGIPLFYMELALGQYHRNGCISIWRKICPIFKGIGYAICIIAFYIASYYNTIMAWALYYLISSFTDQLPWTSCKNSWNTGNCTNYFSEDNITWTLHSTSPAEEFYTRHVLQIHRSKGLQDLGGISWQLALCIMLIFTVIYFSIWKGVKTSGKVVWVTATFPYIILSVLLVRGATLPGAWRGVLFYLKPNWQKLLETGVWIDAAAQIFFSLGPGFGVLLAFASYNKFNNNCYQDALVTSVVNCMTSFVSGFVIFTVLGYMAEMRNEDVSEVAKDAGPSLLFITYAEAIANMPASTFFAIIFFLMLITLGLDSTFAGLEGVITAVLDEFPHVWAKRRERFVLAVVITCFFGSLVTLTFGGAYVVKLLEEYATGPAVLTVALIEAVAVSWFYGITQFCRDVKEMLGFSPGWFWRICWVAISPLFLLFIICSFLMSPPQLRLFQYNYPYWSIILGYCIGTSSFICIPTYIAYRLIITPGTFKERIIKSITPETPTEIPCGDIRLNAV
Procedure: (§1) The possibility of KDS12025 on kinase off-target, the KINOMEscan panel of scanEDGE assay was conducted in DiscoverX (CA, USA) using a site-directed competition binding with the test compounds. The assay results are given in Supplementary Table 4 and experimental information is available on the DiscoverX web page (www.discoverx.com). Moreover, the Delta SafetyScreen87 panel assay was conducted in Eurofins Discovery (Cerep, France). The assay results are given in Supplementary Table 5 and experimental information is available on the DiscoverX web page (https://www.eurofinsdiscoveryservices.com).

[2] = target: T2, 5-HT2B (h) (agonist radioligand) (Homo sapiens, UniProt P41595); conditions: 1.0E-06 M; mean; read-out: % Inhibition of Control Specific Binding (1st, 2nd, Mean)
T2 construct: purchased DiscoverX KINOMEscan scanEDGE; Eurofins Cerep SafetyScreen87
Procedure: as §1

[3] = target: T3, 5-HT3 (h) (antagonist radioligand) (Homo sapiens, UniProt P46098); conditions: 1.0E-06 M; read-out: % Inhibition of Control Specific Binding (1st, 2nd, Mean)
T3 construct: purchased DiscoverX KINOMEscan scanEDGE; Eurofins Cerep SafetyScreen87
Procedure: as §1

[4] = target: T4, A1 (h) (antagonist radioligand) (Homo sapiens, UniProt P30542); conditions: 1.0E-06 M, read-out: % Inhibition of Control Specific Binding (1st, 2nd, Mean)
T4 construct: purchased DiscoverX KINOMEscan scanEDGE; Eurofins Cerep SafetyScreen87
T4 sequence (P30542 whole entry): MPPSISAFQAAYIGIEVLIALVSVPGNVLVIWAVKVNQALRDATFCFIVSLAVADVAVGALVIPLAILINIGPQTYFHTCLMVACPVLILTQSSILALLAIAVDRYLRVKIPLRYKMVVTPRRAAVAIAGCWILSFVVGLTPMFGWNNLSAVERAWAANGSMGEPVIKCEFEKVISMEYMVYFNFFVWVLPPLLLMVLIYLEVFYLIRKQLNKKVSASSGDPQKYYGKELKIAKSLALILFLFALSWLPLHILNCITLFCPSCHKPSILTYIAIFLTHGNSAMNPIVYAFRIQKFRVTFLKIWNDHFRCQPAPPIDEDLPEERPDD
Procedure: as §1

[5] = target: T5, AT1 (h) (antagonist radioligand) (Homo sapiens, UniProt P30556); conditions: 1.0E-06 M, read-out: % Inhibition of Control Specific Binding (1st, 2nd, Mean)
T5 construct: purchased DiscoverX KINOMEscan scanEDGE; Eurofins Cerep SafetyScreen87
T5 sequence (P30556 whole entry): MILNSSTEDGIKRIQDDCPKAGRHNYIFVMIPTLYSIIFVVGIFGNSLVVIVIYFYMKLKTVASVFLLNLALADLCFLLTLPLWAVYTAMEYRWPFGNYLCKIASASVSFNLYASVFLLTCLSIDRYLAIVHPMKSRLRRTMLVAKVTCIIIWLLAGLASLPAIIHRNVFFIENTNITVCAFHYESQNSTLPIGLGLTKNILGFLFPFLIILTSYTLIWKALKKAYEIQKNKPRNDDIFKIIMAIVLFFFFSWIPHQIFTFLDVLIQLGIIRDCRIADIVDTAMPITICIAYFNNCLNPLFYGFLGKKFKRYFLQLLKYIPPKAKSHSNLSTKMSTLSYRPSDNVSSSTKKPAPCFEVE
Procedure: as §1

[6] = tested on: BZD (central) (agonist radioligand); conditions: 1.0E-06 M, read-out: % Inhibition of Control Specific Binding (1st, 2nd, Mean)
Procedure: as §1

[7] = target: T6, CB1 (h) (agonist radioligand) (Homo sapiens, UniProt P21554); conditions: 1.0E-06 M, read-out: % Inhibition of Control Specific Binding (1st, 2nd, Mean)
T6 construct: purchased DiscoverX KINOMEscan scanEDGE; Eurofins Cerep SafetyScreen87
T6 sequence (P21554 whole entry): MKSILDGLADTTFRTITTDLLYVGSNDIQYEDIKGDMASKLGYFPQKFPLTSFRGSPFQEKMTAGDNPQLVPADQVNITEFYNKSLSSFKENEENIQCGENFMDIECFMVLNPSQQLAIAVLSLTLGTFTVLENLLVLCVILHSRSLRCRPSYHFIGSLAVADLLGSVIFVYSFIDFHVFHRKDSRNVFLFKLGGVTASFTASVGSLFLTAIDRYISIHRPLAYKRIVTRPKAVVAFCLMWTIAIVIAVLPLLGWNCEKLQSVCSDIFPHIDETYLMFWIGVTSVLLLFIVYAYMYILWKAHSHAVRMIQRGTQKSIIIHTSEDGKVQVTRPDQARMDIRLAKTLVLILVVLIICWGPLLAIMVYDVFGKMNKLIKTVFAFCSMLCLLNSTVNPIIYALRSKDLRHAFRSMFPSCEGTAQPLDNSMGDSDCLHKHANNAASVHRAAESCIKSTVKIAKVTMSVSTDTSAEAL
Procedure: as §1

[8] = target: T7, CCK1 (CCKA) (h) (agonist radioligand) (Homo sapiens, UniProt P32238); conditions: 1.0E-06 M; read-out: % Inhibition of Control Specific Binding (1st, 2nd, Mean)
T7 construct: purchased DiscoverX KINOMEscan scanEDGE; Eurofins Cerep SafetyScreen87
Procedure: as §1

[9] = target: T8, CCK2 (CCKB) (h) (agonist radioligand) (Homo sapiens, UniProt P32239)
T8 construct: purchased DiscoverX KINOMEscan scanEDGE; Eurofins Cerep SafetyScreen87
T8 sequence (P32239 whole entry): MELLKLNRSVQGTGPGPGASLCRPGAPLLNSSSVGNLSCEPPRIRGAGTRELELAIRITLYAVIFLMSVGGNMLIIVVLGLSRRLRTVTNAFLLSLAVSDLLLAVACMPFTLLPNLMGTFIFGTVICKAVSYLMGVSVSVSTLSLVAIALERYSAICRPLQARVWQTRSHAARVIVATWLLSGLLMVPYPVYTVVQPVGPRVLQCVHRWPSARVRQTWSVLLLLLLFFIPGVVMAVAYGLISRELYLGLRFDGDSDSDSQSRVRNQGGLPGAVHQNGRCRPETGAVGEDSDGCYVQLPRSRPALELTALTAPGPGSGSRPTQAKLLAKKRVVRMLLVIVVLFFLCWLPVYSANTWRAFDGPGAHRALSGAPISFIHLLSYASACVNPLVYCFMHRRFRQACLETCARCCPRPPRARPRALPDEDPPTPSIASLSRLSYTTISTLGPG
Procedure: as §1

[10] = target: T9, CCR1 (h) (agonist radioligand) (Homo sapiens, UniProt P32246)
T9 construct: purchased DiscoverX KINOMEscan scanEDGE; Eurofins Cerep SafetyScreen87
Procedure: as §1

[11] = tested on: Ca2+ channel (L, dihydropyridine site) (antagonist radioligand); conditions: 1.0E-06 M, read-out: % Inhibition of Control Specific Binding (1st, 2nd, Mean)
Procedure: as §1

[12] = tested on: Ca2+ channel (L, verapamil site) (phenylalkylamine) (antagonist radioligand); conditions: 1.0E-06 M, read-out: % Inhibition of Control Specific Binding (1st, 2nd, Mean)
Procedure: as §1

[13] = target: T10, CysLT1 (LTD4) (h) (agonist radioligand) (Homo sapiens, UniProt Q9Y271); conditions: read-out: % Inhibition of Control Specific Binding (1st, 2nd, Mean); 1.0E-06 M
T10 construct: purchased DiscoverX KINOMEscan scanEDGE; Eurofins Cerep SafetyScreen87
Procedure: as §1

[14] = target: T11, D1 (h) (antagonist radioligand) (Homo sapiens, UniProt P21728); conditions: 1.0E-06 M, read-out: % Inhibition of Control Specific Binding (1st, 2nd, Mean)
T11 construct: purchased DiscoverX KINOMEscan scanEDGE; Eurofins Cerep SafetyScreen87
T11 sequence (P21728 whole entry): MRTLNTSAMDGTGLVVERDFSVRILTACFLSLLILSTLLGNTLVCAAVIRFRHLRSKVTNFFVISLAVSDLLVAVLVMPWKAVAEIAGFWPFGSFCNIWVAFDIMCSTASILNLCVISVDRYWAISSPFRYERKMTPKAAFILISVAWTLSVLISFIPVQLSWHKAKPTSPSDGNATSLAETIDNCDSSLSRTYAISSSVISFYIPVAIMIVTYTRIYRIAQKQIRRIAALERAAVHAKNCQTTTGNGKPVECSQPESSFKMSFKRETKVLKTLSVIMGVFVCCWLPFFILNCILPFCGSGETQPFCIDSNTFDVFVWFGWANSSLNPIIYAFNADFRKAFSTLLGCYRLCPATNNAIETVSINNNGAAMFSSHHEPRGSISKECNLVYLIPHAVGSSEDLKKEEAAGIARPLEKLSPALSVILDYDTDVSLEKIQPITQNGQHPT
Procedure: as §1

[15] = tested on: GABA transporter (antagonist radioligand); conditions: 1.0E-06 M, read-out: % Inhibition of Control Specific Binding (1st, 2nd, Mean)
Procedure: as §1

[16] = target: T12, GABAA1 (h) (alpha 1,beta 2,gamma 2) (agonist radioligand) (Homo sapiens, UniProt P14867+P47870); conditions: 1.0E-06 M, read-out: % Inhibition of Control Specific Binding (1st, 2nd, Mean)
T12 construct: purchased DiscoverX KINOMEscan scanEDGE; Eurofins Cerep SafetyScreen87
Procedure: as §1

[17] = target: T13, H2 (h) (antagonist radioligand) (Homo sapiens, UniProt P25021); conditions: read-out: % Inhibition of Control Specific Binding (1st, 2nd, Mean); 1.0E-06 M
T13 construct: purchased DiscoverX KINOMEscan scanEDGE; Eurofins Cerep SafetyScreen87
Procedure: as §1

[18] = tested on: KV channel (antagonist radioligand); conditions: 1.0E-06 M, read-out: % Inhibition of Control Specific Binding (1st, 2nd, Mean)
Procedure: as §1

[19] = target: T14, M1 (h) (antagonist radioligand) (Homo sapiens, UniProt P11229); conditions: 1.0E-06 M; mean; read-out: % Inhibition of Control Specific Binding (1st, 2nd, Mean)
T14 construct: purchased DiscoverX KINOMEscan scanEDGE; Eurofins Cerep SafetyScreen87
Procedure: as §1

[20] = target: T15, MC4 (h) (agonist radioligand) (Homo sapiens, UniProt P32245); conditions: 1.0E-06 M; read-out: % Inhibition of Control Specific Binding (1st, 2nd, Mean)
T15 construct: purchased DiscoverX KINOMEscan scanEDGE; Eurofins Cerep SafetyScreen87
Procedure: as §1

[21] = target: T16, N muscle-type (h) (antagonist radioligand) (Homo sapiens, UniProt P02708+P07510+Q07001); conditions: 1.0E-06 M; mean; read-out: % Inhibition of Control Specific Binding (1st, 2nd, Mean)
T16 construct: purchased DiscoverX KINOMEscan scanEDGE; Eurofins Cerep SafetyScreen87
Procedure: as §1

[22] = target: T17, NK1 (h) (agonist radioligand) (Homo sapiens, UniProt P25103); conditions: 1.0E-06 M; mean; read-out: % Inhibition of Control Specific Binding (1st, 2nd, Mean)
T17 construct: purchased DiscoverX KINOMEscan scanEDGE; Eurofins Cerep SafetyScreen87
Procedure: as §1

[23] = target: T18, PR (h) (agonist radioligand) (Homo sapiens, UniProt P06401); conditions: read-out: % Inhibition of Control Specific Binding (1st, 2nd, Mean); 1.0E-06 M
T18 construct: purchased DiscoverX KINOMEscan scanEDGE; Eurofins Cerep SafetyScreen87
Procedure: as §1

[24] = target: T19, Potassium Channel hERG (human)- [3H] Dofetilide (Homo sapiens, UniProt Q12809); conditions: 1.0E-06 M, read-out: % Inhibition of Control Specific Binding (1st, 2nd, Mean)
T19 construct: Eurofins Discovery (Cerep, France) SafetyScreen87 panel
Procedure: as §1

[25] = target: T20, RARalpha (h) (agonist radioligand) (Homo sapiens, UniProt P10276); conditions: 1.0E-06 M; read-out: % Inhibition of Control Specific Binding (1st, 2nd, Mean)
T20 construct: purchased DiscoverX KINOMEscan scanEDGE; Eurofins Cerep SafetyScreen87
T20 sequence (P10276 whole entry): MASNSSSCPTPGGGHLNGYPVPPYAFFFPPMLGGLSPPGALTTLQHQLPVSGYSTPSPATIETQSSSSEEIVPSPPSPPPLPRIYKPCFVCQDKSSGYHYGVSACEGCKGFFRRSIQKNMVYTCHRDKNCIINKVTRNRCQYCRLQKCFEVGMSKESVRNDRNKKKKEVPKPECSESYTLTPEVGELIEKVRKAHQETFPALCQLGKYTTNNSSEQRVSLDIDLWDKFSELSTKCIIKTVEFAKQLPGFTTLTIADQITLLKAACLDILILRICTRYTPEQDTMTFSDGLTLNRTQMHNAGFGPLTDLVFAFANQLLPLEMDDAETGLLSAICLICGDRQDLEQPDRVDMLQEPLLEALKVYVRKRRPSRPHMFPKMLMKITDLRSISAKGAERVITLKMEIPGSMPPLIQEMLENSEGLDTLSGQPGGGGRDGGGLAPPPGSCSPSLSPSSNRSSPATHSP
Procedure: as §1

[26] = target: T21, V1a (h) (agonist radioligand) (Homo sapiens, UniProt P37288); conditions: 1.0E-06 M; mean; read-out: % Inhibition of Control Specific Binding (1st, 2nd, Mean)
T21 construct: purchased DiscoverX KINOMEscan scanEDGE; Eurofins Cerep SafetyScreen87
Procedure: as §1

[27] = target: T22, alpha 2A (h) (antagonist radioligand) (Homo sapiens, UniProt P08913); conditions: 1.0E-06 M, read-out: % Inhibition of Control Specific Binding (1st, 2nd, Mean)
T22 construct: purchased DiscoverX KINOMEscan scanEDGE; Eurofins Cerep SafetyScreen87
T22 sequence (P08913 whole entry): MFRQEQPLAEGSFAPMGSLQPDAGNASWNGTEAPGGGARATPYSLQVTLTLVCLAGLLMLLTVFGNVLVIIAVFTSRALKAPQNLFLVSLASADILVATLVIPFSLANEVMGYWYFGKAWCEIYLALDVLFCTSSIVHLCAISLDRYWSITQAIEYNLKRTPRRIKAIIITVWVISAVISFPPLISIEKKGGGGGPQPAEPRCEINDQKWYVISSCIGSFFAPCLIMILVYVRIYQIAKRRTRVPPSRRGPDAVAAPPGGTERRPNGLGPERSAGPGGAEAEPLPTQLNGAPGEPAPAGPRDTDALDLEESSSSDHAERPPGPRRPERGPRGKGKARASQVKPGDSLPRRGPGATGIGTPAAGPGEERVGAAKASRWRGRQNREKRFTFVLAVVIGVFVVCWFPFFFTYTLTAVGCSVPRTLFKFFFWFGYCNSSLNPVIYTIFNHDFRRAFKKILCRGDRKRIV
Procedure: as §1

[28] = target: T23, beta 1 (h) (agonist radioligand) (Homo sapiens, UniProt P08588); conditions: 1.0E-06 M, read-out: % Inhibition of Control Specific Binding (1st, 2nd, Mean)
T23 construct: purchased DiscoverX KINOMEscan scanEDGE; Eurofins Cerep SafetyScreen87
T23 sequence (P08588 whole entry): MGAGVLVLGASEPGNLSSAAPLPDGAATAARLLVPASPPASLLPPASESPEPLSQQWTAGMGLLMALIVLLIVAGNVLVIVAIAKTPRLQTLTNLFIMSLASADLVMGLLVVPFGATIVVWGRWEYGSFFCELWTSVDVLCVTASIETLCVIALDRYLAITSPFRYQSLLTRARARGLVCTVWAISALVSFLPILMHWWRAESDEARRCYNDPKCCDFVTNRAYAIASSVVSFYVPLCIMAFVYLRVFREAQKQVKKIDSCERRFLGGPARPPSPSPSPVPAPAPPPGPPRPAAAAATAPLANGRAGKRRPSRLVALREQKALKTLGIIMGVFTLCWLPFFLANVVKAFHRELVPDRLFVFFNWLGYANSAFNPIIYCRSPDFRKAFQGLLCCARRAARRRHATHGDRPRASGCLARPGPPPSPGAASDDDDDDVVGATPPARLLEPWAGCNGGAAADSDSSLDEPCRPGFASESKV
Procedure: as §1

[29] = target: T24, beta 2 (h) (antagonist radioligand) (Homo sapiens, UniProt P07550)
T24 construct: purchased DiscoverX KINOMEscan scanEDGE; Eurofins Cerep SafetyScreen87
Procedure: as §1

[30] = target: T25, mu (MOP) (h) (agonist radioligand) (Homo sapiens, UniProt P35372); conditions: 1.0E-06 M; mean; read-out: % Inhibition of Control Specific Binding (1st, 2nd, Mean)
T25 construct: purchased DiscoverX KINOMEscan scanEDGE; Eurofins Cerep SafetyScreen87
Procedure: as §1

[31] = target: T26, norepinephrine transporter (h) (antagonist radioligand) (Homo sapiens, UniProt P23975); conditions: 1.0E-06 M, read-out: % Inhibition of Control Specific Binding (1st, 2nd, Mean)
T26 construct: Eurofins Discovery (Cerep, France) SafetyScreen87 panel
T26 sequence (P23975 whole entry): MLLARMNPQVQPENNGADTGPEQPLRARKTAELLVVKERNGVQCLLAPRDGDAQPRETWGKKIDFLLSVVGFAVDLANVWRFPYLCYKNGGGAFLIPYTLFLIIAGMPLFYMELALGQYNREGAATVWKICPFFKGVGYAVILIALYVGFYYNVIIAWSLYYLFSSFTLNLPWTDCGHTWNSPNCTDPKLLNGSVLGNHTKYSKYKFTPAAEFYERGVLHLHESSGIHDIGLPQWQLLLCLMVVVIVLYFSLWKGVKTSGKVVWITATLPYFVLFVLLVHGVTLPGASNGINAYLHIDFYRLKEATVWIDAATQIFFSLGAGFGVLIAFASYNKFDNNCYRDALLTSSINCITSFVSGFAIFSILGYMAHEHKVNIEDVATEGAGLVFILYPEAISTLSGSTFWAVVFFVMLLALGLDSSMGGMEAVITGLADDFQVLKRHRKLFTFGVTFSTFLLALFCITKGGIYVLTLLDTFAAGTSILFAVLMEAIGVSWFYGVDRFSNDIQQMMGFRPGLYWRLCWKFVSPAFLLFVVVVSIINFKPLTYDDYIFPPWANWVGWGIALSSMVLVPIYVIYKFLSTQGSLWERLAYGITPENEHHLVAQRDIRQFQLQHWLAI
Procedure: as §1

[32] = 1.0E-06 M; read-out: % Inhibition of Control Specific Binding (1st, 2nd, Mean)
[33] = read-out: % Inhibition of Control Specific Binding (1st, 2nd, Mean); 1.0E-06 M

## CNc1ccc(NCCc2ccccc2OC)cc1.Cl [KDS12025, N^1-(2-methoxyphenethyl)-N^4-methylbenzene-1,4-diamine hydrochloride salt]
[1]; mean
  activity: 54.6%
[1]
  activity: 62.9% and 46.4%
[2]
  activity: 63.9%
[3]
  activity: 91.4% and 100%
[4]; mean
  activity: 114%
[4]
  activity: 115% and 114%
[5]; mean
  activity: 87.4%
[5]
  activity: 82.3% and 92.5%
[6]; mean
  activity: 99.5%
[6]
  activity: 102% and 96.6%
[7]; mean
  activity: 80%
[7]
  activity: 81.7% and 78.4%
[8]
  activity: 104%
[9]; [32]
  activity: 97%
[9]; [33]
  activity: 107%
[10]; [32]
  activity: 90.4%
[10]; [33]
  activity: 88.2%
[11]; mean
  activity: 129%
[11]
  activity: 138% and 121%
[12]; mean
  activity: 98%
[12]
  activity: 101% and 95.5%
[13]
  activity: 87.1%
[14]; mean
  activity: 97.5%
[14]
  activity: 91.1% and 104%
[15]; mean
  activity: 96%
[15]
  activity: 101% and 91.1%
[16]; mean
  activity: 95.1%
[16]
  activity: 92.4% and 97.8%
[17]
  activity: 94.2%
[18]; mean
  activity: 96.5%
[18]
  activity: 85.3% and 108%
[19]
  activity: 91.8%
[20]
  activity: 88.7%
[21]
  activity: 74.3%
[22]
  activity: 91.2%
[23]
  activity: 104%
[24]; mean
  activity: 68.5%
[24]
  activity: 66.8%
[25]
  activity: 105%
[26]
  activity: 110%
[27]; mean
  activity: 86.1%
[27]
  activity: 86.9% and 85.4%
[28]; mean
  activity: 90.5%
[28]
  activity: 86.7% and 94.3%
[29]; [32]
  activity: 104%
[29]; [33]
  activity: 96.8%
[30]
  activity: 84.5%
[31]; mean
  activity: 93.3%
[31]
  activity: 89.5%
